Holding throughout (type): in vivo
The test system of assay [1] is Erysiphe graminis tritici (powdery mildew). Briefly: Test 1 greenhouse foliar spray screen, powdery mildew on wheat. The following applies: Blumeria graminis, foliar, Test 1, foliar spray on wheat; disease control rating at 400 ppm / 100 ppm; read-out: POWD MDEW.
For assay [2], the system named is Pseudoperonospora cubensis (downy mildew). Briefly: Test 1 greenhouse foliar spray screen, downy mildew on squash. The following applies: Pseudoperonospora cubensis, foliar, Test 1, foliar spray on squash; disease control rating at 400 ppm / 100 ppm; read-out: DOWN MDEW.
Assay [3] deals with Puccinia recondita tritici (leaf rust). Description: Test 1 greenhouse foliar spray screen, leaf rust on wheat. The conditions noted are these: Puccinia recondita, foliar, Test 1, foliar spray on wheat; disease control rating at 400 ppm / 100 ppm.
The test system of assay [4] is Pyricularia oryzae (rice blast). Briefly: whole plant or invertebrate. The conditions noted are these: Pyricularia oryzae, foliar, read-out: RICE BLAST, Test 1, foliar spray on rice; disease control rating at 400 ppm / 100 ppm.
Assay [5] has as its system Botrytis cinerea (gray mold). Briefly: Test 1 greenhouse foliar spray screen, gray mold on grape berries. The following applies: Botrytis cinerea, foliar; Test 1, spray on grape berries; disease control rating at 400 ppm / 100 ppm.
Assay [6] has as its system southern armyworm (Spodopetra eridania Cramer). Briefly: Mite/insect screen, SAW. The following applies: Spodoptera eridania, foliar, percent mortality, foliar spray on squash, read-out: SAW RESULTS %; for mortality at 200 ppm: rate 200 ppm; for mortality at 400 ppm: rate 400 ppm. The procedure, abridged:
(§1)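 Foliar spray to runoff (10 psi), 1 h drying; aqueous dilutions from acetone/alcohol emulsifier stock. Mortality (%) after standard exposure.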

In assay [7] the test system is melon aphids (Aphis gossypii Glover). Briefly: Mite/insect screen, MA. The following applies: Aphis gossypii, foliar, percent mortality, foliar spray on squash, read-out: MA RESULTS %; for mortality at 200 ppm: rate 200 ppm; for mortality at 400 ppm: rate 400 ppm. In a few lines: as §1
For another assay, the system named is corn rootworm. Briefly: Mite/insect screen, CRW. The following applies: percent mortality, read-out: CRW RESULTS %; for mortality at 12 ppm: CRW rate 12.00 ppm; for mortality at 24 ppm: CRW rate 24.00 ppm. In a few lines: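 Following dissolution in equal parts acetone and alcohol with 23 g/L and 13 g/L emulsifier blends and dilution with water, test solutions were scored for percent mortality at the end of standard exposures.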

Assay [8] has as its system Twospotted spider mites (Tetranychus urticae Koch). Briefly: Mite/insect screen, SM. The following applies: Tetranychus urticae, foliar, percent mortality, foliar spray on squash, read-out: SM RESULTS %; for mortality at 200 ppm: rate 200 ppm; for mortality at 400 ppm: rate 400 ppm. In a few lines:
as §1

On to `CCOc1ccc2nc(C)cc(OCCCOCc3ccccc3)c2c1` [Example 279, 6-ethoxy-2-methyl-4-[3-(phenylmethoxy)propoxy]quinoline], for which the pest or weed control at 400 ppm in [1] fell in the range of 0 to 19%; in [2] it was 90 to 100%; in assay [3], 90 to 100%; in assay [4], 90 to 100%; in assay [5] it was 0 to 19%. The mortality at 200 ppm in assay [6], in assay [7] and in assay [8] was 0% throughout. The mortality at 400 ppm amounted to 0% in assay [6], 80% in assay [7] and 0% in assay [8]. In addition, the mortality at 12 ppm with corn rootworm stood at 0%. Further, the mortality at 24 ppm with corn rootworm worked out at 0%.
Turning to `Clc1cccc2c(NCCc3cccc(Oc4ccccc4)c3)ccnc12` [Example 280, 8-chloro-N-[2-(3-phenoxyphenyl)ethyl]-4-quinolinamine], the pest or weed control at 400 ppm lay in the range of 90 to 100% in assay [1]; 90 to 100% in assay [2]; 90 to 100% in assay [3]; 90 to 100% in assay [4]; 0 to 19% in assay [5]. For the same molecule, the mortality at 200 ppm in assay [6] amounted to 60%; in assay [7], 0%; in assay [8], 0%. Besides, the mortality at 400 ppm in assay [6], in [7] and in assay [8] was 0% throughout. In addition, the mortality at 12 ppm in the assay with corn rootworm was 0%. Besides, the mortality at 24 ppm in the assay on corn rootworm worked out at 0%.
Turning to `Clc1cccc2c(NCCCCc3ccccc3)ccnc12` [Example 281, 8-chloro-N-(4-phenylbutyl)-4-quinolinamine], the pest or weed control at 400 ppm in [1] lay within 20 to 89%; in assay [2] it was 90 to 100%; in [3] it was 20 to 89%; in [4], 90 to 100%; in [5] it was 0 to 19%. In addition, the mortality at 200 ppm in assay [6], in assay [7] and in [8] was 0% each time. Besides, the mortality at 400 ppm in [6], in [7] and in assay [8] was 0% in each case. Also, in the assay with corn rootworm, the mortality at 12 ppm was 0%. Also, the mortality at 24 ppm in the assay with corn rootworm was found to be 0%.
As to `Fc1cccc2c(OCCCc3ccc(Oc4ccccc4)cc3)ccnc12` [Example 282, 8-fluoro-4-[3-(4-phenoxyphenyl)propoxy]quinoline], the pest or weed control at 400 ppm in assay [1] was in the range of 0 to 19%; in assay [2], 0 to 19%; in assay [3] it was 0 to 19%; in assay [4] it was 20 to 89%; in [5], 0 to 19%. Also, the mortality at 200 ppm in assay [6], in assay [7] and in assay [8] was 0% in each case. Further, the mortality at 400 ppm in assay [6], in [7] and in [8] was 0% each time. Besides, the mortality at 12 ppm in the assay with corn rootworm came to 0%. Besides, the mortality at 24 ppm with corn rootworm was 0%.
For the molecule `CC(CNc1ccnc2cc(Cl)ccc12)c1ccc(Cl)cc1` (centres unmarked) [Example 283, 7-chloro-N-[2-(4-chlorophenyl)propyl]-4-quinolinamine], the pest or weed control at 400 ppm in assay [1] fell in the range of 20 to 89%; in [2], 90 to 100%; in assay [3], 90 to 100%; in assay [4], 20 to 89%; in assay [5] it was 0 to 19%. The mortality at 200 ppm in assay [6] turned out to be 0%; in [7] it was 80%; in assay [8], 0%. Also, the mortality at 400 ppm in [6] is 0%; in assay [7], 0%; in assay [8], 80%. The mortality at 12 ppm with corn rootworm amounted to 0%. Moreover, in the assay on corn rootworm, the mortality at 24 ppm turned out to be 0%.
For the molecule `Fc1cccc2c(OCCCC(Br)CBr)ccnc12` (centres unmarked) [Example 284, 4-[(4,5-dibromopentyl)oxy]-8-fluoroquinoline], the pest or weed control at 400 ppm in assay [1] fell in the range of 0 to 19%; in [2], 20 to 89%; in assay [3] it was 90 to 100%; in [4], 90 to 100%; in [5], 0 to 19%. Further, the mortality at 200 ppm in assay [6], in assay [7] and in [8] was 0% throughout. For the same molecule, the mortality at 400 ppm in assay [6], in [7] and in [8] was 0% in each case. Also, in the assay on corn rootworm, the mortality at 12 ppm turned out to be 0%. For the same molecule, in the assay on corn rootworm, the mortality at 24 ppm is 0%.
`Fc1cccc2c(OCCCCCCCCOc3ccccc3)ccnc12` [Example 285, 8-fluoro-4-[(8-phenoxyoctyl)oxy]quinoline]: the pest or weed control at 400 ppm in assay [1], in assay [2], in assay [3], in [4] and in assay [5] was 0 to 19% each time. The mortality at 200 ppm in assay [6] was found to be 0%; in assay [7], 80%; in assay [8], 40%. The mortality at 400 ppm in assay [6], in assay [7] and in assay [8] was 0% each time. Besides, the mortality at 12 ppm in the assay on corn rootworm was 0%. Also, the mortality at 24 ppm in the assay with corn rootworm is 0%.
For `Cc1cc(OCCc2ccc(C(C)(C)C)cc2)c2cc(Cl)ccc2n1` [Example 286, 6-chloro-2-methyl-4-[2-[4-(t-butyl)phenyl]ethoxy]quinoline], the pest or weed control at 400 ppm was 20 to 89% in assay [1]; 0 to 19% in assay [2]; 20 to 89% in assay [3]; 0 to 19% in [4]; 0 to 19% in assay [5]. In addition, the mortality at 200 ppm in [6], in [7] and in assay [8] was 0% each time. Also, the mortality at 400 ppm in assay [6], in assay [7] and in assay [8] was 0% throughout. In the assay with corn rootworm, the mortality at 12 ppm worked out at 0%. For the same molecule, the mortality at 24 ppm in the assay with corn rootworm amounted to 0%.
Regarding `Fc1cccc2c(OCCCCCCOc3ccccc3)ccnc12` [Example 287, 8-fluoro-4-[(6-phenoxyhexyl)oxy]quinoline], the pest or weed control at 400 ppm lay within 0 to 19% in assay [1]; 90 to 100% in assay [2]; 20 to 89% in assay [3]; 0 to 19% in assay [4]; 0 to 19% in [5]. Also, the figures for the mortality at 200 ppm in assay [6], in assay [7] and in [8] were 0%, 80% and 0%, respectively. Further, the mortality at 400 ppm in assay [6], in assay [7] and in assay [8] was 0% in each case. For the same molecule, the mortality at 12 ppm with corn rootworm came to 0%. Moreover, in the assay with corn rootworm, the mortality at 24 ppm was found to be 0%.
Regarding `CC(C)(CNc1ccnc2c(Cl)cccc12)c1ccccc1` [Example 288, 8-chloro-N-(2-methyl-2-phenylpropyl)-4-quinolinamine], the pest or weed control at 400 ppm in [1] fell in the range of 0 to 19%; in assay [2], 20 to 89%; in assay [3] it was 0 to 19%; in assay [4], 20 to 89%; in assay [5], 0 to 19%. In addition, the mortality at 200 ppm in [6], in assay [7] and in assay [8] was 0% each time. Besides, the mortality at 400 ppm in assay [6], in assay [7] and in [8] was 0% each time. Further, the mortality at 12 ppm in the assay on corn rootworm was 0%. For the same molecule, in the assay on corn rootworm, the mortality at 24 ppm worked out at 0%.
For `CC(C)(CNc1ccnc2c(F)cccc12)c1ccccc1` [Example 289, 8-fluoro-N-(2-methyl-2-phenylpropyl)-4-quinolinamine], the pest or weed control at 400 ppm in assay [1] fell in the range of 20 to 89%; in assay [2], 90 to 100%; in assay [3], 90 to 100%; in [4] it was 90 to 100%; in [5], 0 to 19%. For the same molecule, the mortality at 200 ppm in [6], in [7] and in assay [8] was 0% each time. For the same molecule, the mortality at 400 ppm in [6], in assay [7] and in assay [8] was 0% each time. The mortality at 12 ppm in the assay on corn rootworm was found to be 0%. The mortality at 24 ppm in the assay on corn rootworm came to 0%.

These data come from EP0326331B1, “Substituted quinolines and cinnolines” (Dow AgroSciences LLC, priority 1988, dated 1989).
